# Measurements reported in patent US20040157845A1, “Vanilloid receptor ligands and their use in treatments” (Amgen Inc., priority 2003, published 2004).
row,melting point [°C],Compound
1,267 to 268,Clc1cccc(Cl)c1Nc1nc(-c2nc3cc(Br)ccc3[nH]2)cs1 [Example 74]
2,186 to 187,O=C(Nc1ccc(C(F)(F)F)cc1)c1csc(Nc2ncccc2Cl)n1 [Example 75]
3,226 to 258,O=C(Nc1ccc(Br)cc1)c1csc(Nc2ncccc2Cl)n1 [Example 76]
4,164 to 165,O=C(Nc1ccc(Br)cc1)c1coc(Cc2c(Cl)cccc2Cl)n1 [Example 78]
